A word on the IC50: it is the midpoint of a concentration-inhibition curve.

Molecules are shown by their SMILES.

This note sets out measurements from US20240383915A1, “OXAZEPINE COMPOUNDS AND USES THEREOF IN THE TREATMENT OF CANCER” (Genentech, Inc., priority 2021, published 2024).

One experiment concerns PC-9 cells. Kind of experiment: PC9 proliferation assay. The conditions noted are these: Homo sapiens, PC-9, PC9; read-out: PC9 Prolif IC50 (G12V). The experiment is classed as cell-based, human.
Another experiment concerns the target KRas(G12V) (Homo sapiens (Human), UniProt P01116, G12V). The experiment can be described thus: KRas(G12V) GDP HTRF (BODIPY-GDP exchange TR-FRET). The class given is biochemical. In general terms: Time-resolved FRET reads energy transfer from a long-lived donor to a nearby acceptor.
The next experiment concerns the target KRas (Homo sapiens (Human), UniProt P01116). The experiment can be described thus: KRas GDP HTRF (BODIPY-GDP exchange TR-FRET). The class given is biochemical. In short, it runs like this: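 Inhibition of SOS1-mediated exchange of BODIPY-GDP on KRAS G12D, started with 3 nM recombinant human SOS1 and 300 nM BODIPY-GDP and read after 60 min. TR-FRET excitation 337 nm, ratio 520/490 nm ×10,000. IC50 from 4-parameter Hill fit of normalized data.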

The test system of the next experiment is SW480 cells. Kind of experiment: SW480 proliferation assay. The settings on record: Homo sapiens, SW480, SW480; read-out: SW480 Prolif IC50 (G12V). The experiment is classed as cell-based.

Chain of KRas (P01116-2 other isoform, or with tags, fused parts or gaps): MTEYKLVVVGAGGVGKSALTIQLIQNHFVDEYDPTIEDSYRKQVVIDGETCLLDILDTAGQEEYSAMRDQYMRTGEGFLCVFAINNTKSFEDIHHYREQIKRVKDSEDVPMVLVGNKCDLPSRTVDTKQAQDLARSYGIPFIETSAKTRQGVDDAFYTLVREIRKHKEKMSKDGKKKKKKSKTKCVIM
Chain of KRas(G12V) (P01116-2 other isoform, or with tags, fused parts or gaps G12V): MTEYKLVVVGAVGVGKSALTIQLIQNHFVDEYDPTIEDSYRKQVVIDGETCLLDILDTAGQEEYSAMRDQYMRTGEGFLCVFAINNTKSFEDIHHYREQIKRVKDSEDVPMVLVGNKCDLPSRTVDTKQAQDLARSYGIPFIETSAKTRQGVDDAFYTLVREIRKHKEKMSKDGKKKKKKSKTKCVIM

For `Cc1cc(N)nc(-c2c(Cl)c3c4c(nc(OC[C@@H]5C[C@@]6(CN5C)CC6(F)F)nc4c2F)N([C@H](C)c2cccnc2N)CCO3)c1C(F)(F)F` (atropisomer, axis not shown) [Example 67, 6-((R)-4-((R)-1-(2-aminopyridin-3-yl)ethyl)-8-chloro-2-(((3S,6S)-1,1-difluoro-5-methyl-5-azaspiro[2.4]heptan-6-yl)methoxy)-10-fluoro-5,6-dihydro-4H-[1,4]oxazepino[5,6,7-de]quinazolin-9-yl)-4-methyl-5-(trifluoromethyl)pyridin-2-amine], the IC50 stood at 2800 nM in the experiment with PC-9 cells, 0.17 nM at KRas(G12V), 0.55 nM at KRas and 3.7 nM with SW480 cells.

Consider `Cc1cc(N)nc(-c2c(Cl)c3c4c(nc(OC[C@@H]5C[C@]6(CN5C)CC6(F)F)nc4c2F)N([C@H](C)c2cccnc2N)CCO3)c1C(F)(F)F` (atropisomer, axis not shown) [Example 68, 6-((R)-4-((R)-1-(2-aminopyridin-3-yl)ethyl)-8-chloro-2-(((3R,6S)-1,1-difluoro-5-methyl-5-azaspiro[2.4]heptan-6-yl)methoxy)-10-fluoro-5,6-dihydro-4H-[1,4]oxazepino[5,6,7-de]quinazolin-9-yl)-4-methyl-5-(trifluoromethyl)pyridin-2-amine], for which the IC50 in the experiment with PC-9 cells stood at 1800 nM; against KRas(G12V), 0.1 nM; against KRas, 0.31 nM; in the experiment with SW480 cells, 11 nM.

Consider `Cc1cc(N)nc(-c2c(Cl)c3c4c(nc(OC[C@@]56CCN5CC(F)(F)C6)nc4c2F)N([C@H](C)c2ccnnc2N)CCO3)c1C(F)(F)F` (atropisomer, axis not shown) [Example 77a, 4-((R)-1-((R)-9-(6-amino-4-methyl-3-(trifluoromethyl)pyridin-2-yl)-8-chloro-2-(((S)-3,3-difluoro-1-azabicyclo[3.2.0]heptan-5-yl)methoxy)-10-fluoro-5,6-dihydro-4H-[1,4]oxazepino[5,6,7-de]quinazolin-4-yl)ethyl)pyridazin-3-amine], for which the half-maximal inhibitory concentration (IC50) with PC-9 cells is 20000 nM; against KRas(G12V) it was 0.12 nM; against KRas, 0.33 nM; with SW480 cells, 21 nM.

As for `Cc1cc(N)nc(-c2c(Cl)c3c4c(nc(OC[C@]56CCN5CC(F)(F)C6)nc4c2F)N([C@H](C)c2ccnnc2N)CCO3)c1C(F)(F)F` (atropisomer, axis not shown) [Example 77b, 4-((R)-1-((R)-9-(6-amino-4-methyl-3-(trifluoromethyl)pyridin-2-yl)-8-chloro-2-(((R)-3,3-difluoro-1-azabicyclo[3.2.0]heptan-5-yl)methoxy)-10-fluoro-5,6-dihydro-4H-[1,4]oxazepino[5,6,7-de]quinazolin-4-yl)ethyl)pyridazin-3-amine], the 50% inhibitory concentration (IC50) was determined as 20000 nM in the experiment on PC-9 cells, 0.13 nM against KRas(G12V), 0.34 nM at KRas and 65 nM in the experiment on SW480 cells.

On to `Cc1cc(N)nc(-c2c(Cl)c3c4c(nc(OC[C@@]56CCN5CC(F)(F)C6)nc4c2F)N([C@H](C)c2cncnc2N)CCO3)c1C(F)(F)F` (atropisomer, axis not shown) [Example 82a, 5-((R)-1-((R)-9-(6-amino-4-methyl-3-(trifluoromethyl)pyridin-2-yl)-8-chloro-2-(((S)-3,3-difluoro-1-azabicyclo[3.2.0]heptan-5-yl)methoxy)-10-fluoro-5,6-dihydro-4H-[1,4]oxazepino[5,6,7-de]quinazolin-4-yl)ethyl)pyrimidin-4-amine], for which the half-inhibitory concentration (IC50) worked out at 6800 nM in the experiment on PC-9 cells, 0.11 nM against KRas(G12V), 0.164 nM on KRas and 26 nM in the experiment with SW480 cells.

On to `Cc1cc(N)nc(-c2c(Cl)c3c4c(nc(OC[C@]56CCN5CC(F)(F)C6)nc4c2F)N([C@H](C)c2cncnc2N)CCO3)c1C(F)(F)F` (atropisomer, axis not shown) [Example 82b, 5-((R)-1-((R)-9-(6-amino-4-methyl-3-(trifluoromethyl)pyridin-2-yl)-8-chloro-2-(((R)-3,3-difluoro-1-azabicyclo[3.2.0]heptan-5-yl)methoxy)-10-fluoro-5,6-dihydro-4H-[1,4]oxazepino[5,6,7-de]quinazolin-4-yl)ethyl)pyrimidin-4-amine], for which the IC50 in the experiment with PC-9 cells stood at 7200 nM; against KRas(G12V), 0.12 nM; at KRas, 0.224 nM; in the experiment with SW480 cells, 11 nM.

Consider `Cc1cc(N)nc(-c2c(Cl)c3c4c(nc(OC[C@@H]5CC(F)(F)CN5C)nc4c2F)N([C@H](C)c2cncnc2N)CCO3)c1C(F)(F)F` (atropisomer, axis not shown) [Example 83a, 5-((R)-1-((R)-9-(6-amino-4-methyl-3-(trifluoromethyl)pyridin-2-yl)-8-chloro-2-(((S)-4,4-difluoro-1-methylpyrrolidin-2-yl)methoxy)-10-fluoro-5,6-dihydro-4H-[1,4]oxazepino[5,6,7-de]quinazolin-4-yl)ethyl)pyrimidin-4-amine], for which the concentration for half-maximal inhibition (IC50) with PC-9 cells is 5900 nM; against KRas(G12V) it was 0.19 nM; at KRas, 0.684 nM; with SW480 cells, 23 nM.

On to `Cc1cc(N)nc(-c2c(Cl)c3c4c(nc(OC[C@@H]5CCN5CC(F)F)nc4c2F)N([C@H](C)c2cncnc2N)CCO3)c1C(F)(F)F` (atropisomer, axis not shown) [Example 84a, 5-((R)-1-((R)-9-(6-amino-4-methyl-3-(trifluoromethyl)pyridin-2-yl)-8-chloro-2-(((S)-1-(2,2-difluoroethyl)azetidin-2-yl)methoxy)-10-fluoro-5,6-dihydro-4H-[1,4]oxazepino[5,6,7-de]quinazolin-4-yl)ethyl)pyrimidin-4-amine], for which the IC50 stood at 12000 nM with PC-9 cells, 0.14 nM against KRas(G12V), 0.389 nM against KRas and 73 nM in the experiment with SW480 cells.

In the case of `Cc1cc(N)nc(-c2c(Cl)c3c4c(nc(N5CC6(COCCN6)C5)nc4c2F)N([C@H](C)c2cccnc2N)CCO3)c1C(F)(F)F` (atropisomer, axis not shown) [Example 90, 6-((R)-4-((R)-1-(2-aminopyridin-3-yl)ethyl)-8-chloro-10-fluoro-2-(8-oxa-2,5-diazaspiro[3.5]nonan-2-yl)-5,6-dihydro-4H-[1,4]oxazepino[5,6,7-de]quinazolin-9-yl)-4-methyl-5-(trifluoromethyl)pyridin-2-amine], the 50% inhibitory concentration (IC50) in the experiment on PC-9 cells is 6400 nM; at KRas(G12V), 0.22 nM; at KRas, 0.99 nM; with SW480 cells, 390 nM.

As for `Cc1cc(N)nc(-c2c(Cl)c3c4c(nc(OC[C@@H]5C[C@@H]6C[N@@]5CCO6)nc4c2F)N([C@H](C)c2cccnc2N)CCO3)c1C(F)(F)F` (atropisomer, axis not shown) [Example 92a, 6-((R)-2-(((1R,5R,7S)-4-oxa-1-azabicyclo[3.2.1]octan-7-yl)methoxy)-4-((R)-1-(2-aminopyridin-3-yl)ethyl)-8-chloro-10-fluoro-5,6-dihydro-4H-[1,4]oxazepino[5,6,7-de]quinazolin-9-yl)-4-methyl-5-(trifluoromethyl)pyridin-2-amine], the half-inhibitory concentration (IC50) turned out to be 1800 nM in the experiment with PC-9 cells, 0.07 nM against KRas(G12V), 0.0648 nM against KRas and 37 nM in the experiment on SW480 cells.

Regarding `Cc1cc(N)nc(-c2c(Cl)c3c4c(nc(OC[C@@]56CCCN5C[C@H](F)C6)nc4c2F)N(Cc2cnc[nH]2)CCO3)c1C(F)(F)F` (single isomer, unassigned) [Example 47a], the IC50 in the experiment on PC-9 cells is 7100 nM; in the experiment on SW480 cells, 20000 nM.

With `Cc1cc(N)nc(-c2cc3nc(OC[C@@]45CCCN4CC(F)(F)C5)nc4c3c(c2Cl)OCCN4Cc2cccnc2N)c1C(F)(F)F` [Example 34, (S)-6-(4-((2-aminopyridin-3-yl)methyl)-8-chloro-2-((2,2-difluorotetrahydro-1H-pyrrolizin-7a(5H)-yl)methoxy)-5,6-dihydro-4H-[1,4]oxazepino[5,6,7-de]quinazolin-9-yl)-4-methyl-5-(trifluoromethyl)pyridin-2-amine], the IC50 with PC-9 cells is 4000 nM; in the experiment on SW480 cells, 820 nM.

For the molecule `Cc1cc(N)nc(-c2cc3nc(OCC45COC(C4)C5)nc4c3c(c2Cl)OCCN4Cc2cccnc2N)c1C(F)(F)F` [Example 36, 6-(2-((2-oxabicyclo[2.1.1]hexan-4-yl)methoxy)-4-((2-aminopyridin-3-yl)methyl)-8-chloro-5,6-dihydro-4H-[1,4]oxazepino[5,6,7-de]quinazolin-9-yl)-4-methyl-5-(trifluoromethyl)pyridin-2-amine], the figures for the IC50 in the experiment on PC-9 cells and in the experiment with SW480 cells were 20000 nM and 8200 nM, respectively.

As to `Cc1cc(N)nc(-c2cc3nc(OC[C@]45CCCN4CC(F)(F)C5)nc4c3c(c2Cl)OCCN4Cc2cccnc2N)c1C(F)(F)F` [Example 50, (R)-6-(4-((2-aminopyridin-3-yl)methyl)-8-chloro-2-((2,2-difluorotetrahydro-1H-pyrrolizin-7a(5H)-yl)methoxy)-5,6-dihydro-4H-[1,4]oxazepino[5,6,7-de]quinazolin-9-yl)-4-methyl-5-(trifluoromethyl)pyridin-2-amine], the IC50 amounted to 6700 nM in the experiment with PC-9 cells and 930 nM with SW480 cells.

On to `Cc1cc(N)nc(-c2c(Cl)c3c4c(nc(OCC56CC(CO5)C6)nc4c2F)N([C@H](C)c2cccnc2N)CCO3)c1C(F)(F)F` [Example 143, 6-((R)-2-((2-oxabicyclo[2.1.1]hexan-1-yl)methoxy)-4-((R)-1-(2-aminopyridin-3-yl)ethyl)-8-chloro-10-fluoro-5,6-dihydro-4H-[1,4]oxazepino[5,6,7-de]quinazolin-9-yl)-4-methyl-5-(trifluoromethyl)pyridin-2-amine], for which the IC50 in the experiment on PC-9 cells amounted to 10000 nM; in the experiment on SW480 cells, 94 nM.
